Assays:
Conditions in all cases: Na2HPO4-citric acid buffer, pH 5.0, 40 °C, 15 min, 5–150 mM L-Glu
[1] = tested on: GADZ1
Description: HPLC of GABA (DABS-Cl derivatisation), initial rate nonlinear fit on GADZ1

[2] = tested on: GADZ11
Description: HPLC of GABA (DABS-Cl derivatisation), initial rate nonlinear fit on GADZ11

[3] = tested on: GADZ20
Description: HPLC of GABA (DABS-Cl derivatisation), initial rate nonlinear fit on GADZ20

**Q.** For `N[C@@H](CCC(=O)O)C(=O)O` [L-Glu], which Km [1] is on record?
**A.** 45.4 ± 8.63 mM

**Q.** What about the Km [2] of the same molecule?
**A.** 52.4 ± 5.44 mM

**Q.** What about the Km [3] of the same molecule?
**A.** 13.3 ± 1.95 mM

Reference: article PMC8336373, “Characterization of three glutamate decarboxylases from Bacillus spp. for efficient γ-aminobutyric acid production” (Microbial Cell Factories, 2021)
